According to paper PMC9485191, “The ERK5/NF-κB signaling pathway targets endometrial cancer proliferation and survival” (Cellular and Molecular Life Sciences, 2022):

Tests used:
AN3CA (endometrial) = assay: cells; parameters: MTT reduction cytotoxicity assay in human tumour cell lines; settings: Homo sapiens, AN3-CA; 48 h, MTT
Procedure: (§1) Cell viability was determined by MTT (3-(4,5-dimethyl-2-thiazolyl)-2,5-diphenyl-2H-tetrazolium Blue, Sigma) reduction assay. For clonogenic assays, cells were seeded in 6-well plates, treated for 14 days and stained with 0.5% crystal violet solution. Colonies with > 40 cells were counted. Cell proliferation was measured by cell counting assay, using a TC10TM automated cell counter (Bio-Rad, Hercules, CA, USA) using Trypan Blue. Cell viability was also determined using a LIVE/DEAD viability/cytotoxicity kit assay (ThermoFisher), as reported before. The above results prompted us to investigate the anticancer activity of ERK5 inhibition in EC. To do so, we used the endometrioid cancer cell lines Ishikawa and AN3CA cells (that carry PTEN deficiency and P53 mutation), as well as the more clinically aggressive non-endometrioid serous adenocarcinoma cell line ARK1 (PI3KCA mutation). In cell viability assays, JWG-071 induced cytotoxicity in the three EC cell lines tested, with IC50 values ranging 2–3 µM. In fact, JWG-071 induced cytotoxicity in a wide panel of cancer cells, including prostate, cervical, neuroblastoma, and glioblastoma cancers (Supplementary Fig. 4).

SH-SY5Y (neuroblastoma) = assay: cells; parameters: MTT reduction cytotoxicity assay in human tumour cell lines; settings: Homo sapiens, SH-SY5Y; 48 h, MTT
Procedure: as §1

LN-18 (glioblastoma) = assay: cells; parameters: MTT reduction cytotoxicity assay in human tumour cell lines; settings: Homo sapiens, LN-18; 48 h, MTT
Procedure: as §1

Hela (cervical) = assay: cells; parameters: MTT reduction cytotoxicity assay in human tumour cell lines; settings: Homo sapiens, HeLa; 48 h, MTT
Procedure: as §1

IMR-32 (neuroblastoma) = assay: cells; parameters: MTT reduction cytotoxicity assay in human tumour cell lines; settings: Homo sapiens, IMR-32; 48 h, MTT
Procedure: as §1

C4-2 (prostate) = assay: cells; parameters: MTT reduction cytotoxicity assay in human tumour cell lines; settings: 48 h, MTT
Procedure: as §1

Ishikawa (endometrial) = assay: cells; parameters: MTT reduction cytotoxicity assay in human tumour cell lines; settings: Homo sapiens, Ishikawa; 48 h, MTT
Procedure: as §1

ARK1 (endometrial) = assay: cells; parameters: MTT reduction cytotoxicity assay in human tumour cell lines; settings: 48 h, MTT
Procedure: as §1

ERK5 [1] = target: T1, ERK5 (Homo sapiens, UniProt Q13164); assay: biochemical; parameters: radiometric 32P-ATP kinase assay, active ERK5, PIMtide substrate, p81 paper, Cherenkov counting; settings: 200 uM ATP
T1 construct: gene MAPK7
Excerpt: Gene silencing Validated siRNAs targeting NEMO were from Sigma (ref. EHU032271) and ThermoFisher (ref. AM51331). Scrambled (control) siRNA was from ThermoFisher. siRNAs were transfected into cells using Lipofectamine-2000, following the manufacturer’s recommended protocol. The vectors encoding two different shRNAs targeting ERK5 were from Sigma (TRCN0000010262/pLKO.1; TRCN0000010275/pLKO.1). Lentiviral production is detailed at Supplementary Materials and Methods. In vitro ERK5 kinase activity assay A 40 μL reaction mixture was prepared containing 200 ng of pure active ERK5 (1) and the indicated amount of inhibitor in 50 mM Tris-HCl, pH 7.5, 0.1 mM EGTA, 1 mM 2-mercaptoethanol. […] Assays were carried out for 20 min at 30°C, terminated by applying the reaction mixture onto p81 paper, and the incorporated radioactivity measured by Cherenkov counting. Most of the ERK5 inhibitors developed so far, including JWG-071, are type I competitive inhibitors that target the ATP-binding site. […] Taking in account that the homeostatic levels of intracellular ATP range from 0.5 to 5 mM [31], it is very likely that ERK5 competitive inhibitors (such as JWG-071) should require µM concentrations to displace ATP from the active site in cells. […]

ERK5 [2] = target: T1, ERK5; assay: in vitro (cell-free) kinase assay at […] ATP ([…] at […] ATP); supported by inhibition of EGF-induced ERK5 phosphorylation in cells; assay type: biochemical

T1 sequence (Q13164 2-816): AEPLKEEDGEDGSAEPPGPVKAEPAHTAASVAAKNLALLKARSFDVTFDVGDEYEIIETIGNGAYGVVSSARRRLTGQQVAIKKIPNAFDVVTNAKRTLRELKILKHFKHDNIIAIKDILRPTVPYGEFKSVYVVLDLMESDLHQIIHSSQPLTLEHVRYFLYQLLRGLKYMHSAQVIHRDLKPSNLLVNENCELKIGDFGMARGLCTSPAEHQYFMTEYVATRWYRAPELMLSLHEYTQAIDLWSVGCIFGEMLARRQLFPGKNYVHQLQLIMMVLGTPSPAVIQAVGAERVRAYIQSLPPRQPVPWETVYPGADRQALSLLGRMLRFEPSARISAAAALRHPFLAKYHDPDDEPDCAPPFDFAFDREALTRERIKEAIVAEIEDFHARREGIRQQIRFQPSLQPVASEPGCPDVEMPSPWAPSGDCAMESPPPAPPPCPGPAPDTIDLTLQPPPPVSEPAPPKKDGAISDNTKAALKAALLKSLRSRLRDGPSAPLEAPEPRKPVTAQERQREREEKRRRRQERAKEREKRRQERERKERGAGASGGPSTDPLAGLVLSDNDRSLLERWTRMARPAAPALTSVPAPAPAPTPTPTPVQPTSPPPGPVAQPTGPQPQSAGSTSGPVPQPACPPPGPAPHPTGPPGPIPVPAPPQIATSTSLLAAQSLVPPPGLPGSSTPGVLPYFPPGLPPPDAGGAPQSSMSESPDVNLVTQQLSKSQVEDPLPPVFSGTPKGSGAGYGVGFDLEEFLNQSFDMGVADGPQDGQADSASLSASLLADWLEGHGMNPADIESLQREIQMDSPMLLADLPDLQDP

IC50 (ERK5 [1]): 0.572 ± 0.051 µM
IC50 (ERK5 [2]): ~0.09 µM
SMILES: CCC(C)N1c2ccccc2C(=O)N(C)c2cnc(Nc3ccc(C(=O)N4CCC(N5CCN(C)CC5)CC4)cc3OC)nc21 (stereo not shown) [JWG-071]
IC50 (AN3CA (endometrial)): 3.3 ± 0.6 µM
IC50 (SH-SY5Y (neuroblastoma)): 4.2 ± 1.4 µM
IC50 (LN-18 (glioblastoma)): 2.9 ± 0.4 µM
IC50 (Hela (cervical)): 2.9 ± 0.7 µM
IC50 (IMR-32 (neuroblastoma)): 1.9 ± 0.3 µM
IC50 (C4-2 (prostate)): 2.2 ± 0.3 µM
IC50 (Ishikawa (endometrial)): 3.2 ± 0.8 µM
IC50 (ARK1 (endometrial)): 2.7 ± 0.2 µM
